Source: patent EP0394122A2, “Use of tetracyclines to manufacture a medicament for the treatment and prevention of AIDS” (priority 1989, dated 1990)

Experiments:
Assay type in all cases: cell-based
[1] = tested on: reverse transcriptase du virus HIV; test: Reverse transcriptase activity in culture supernatant of infected, protected CEM cells (virus production)
Excerpt: Chaque échantillon est divisé en 2 parties, l'une recevant à nouveau le produit étudié et l'autre cultivée en l'absence de produit.
Les cellules sont cultivées pendant 2 mois.
Les cellules infectées traitées ou non de manière continue par la minocycline ou la doxycycline ont été examinées en ce qui concerne la production de virus. La technique utilisée pour la détermination virale a été celle du dosage de la reverse transcriptase du virus HIV.
L'activité de la reverse transcriptase est mesurée directement sur 50 µl de surnageant de culture. 10 µl de tampon contenant 0,5 M de KCl, 5 mM de dithiotreitol (DTT) et 0,5 % de Triton X-100 sont ajoutés à tous les micropuits contenant les 50 µl de surnageant à tester. 40 µl de tampon contenant 1,25 mM d'éthylène glycol-bis(β-aminoéthyl éther) (EGTA), 0,125 M de Tris.HCl pH 7,8, 12,5 mM de MgCl₂, 3 µCi de (³H) Thymidine triphosphate (TTP), 0,05 DO₂₆₀ d'acide polyadénylique - acide thymidylique (poly rA-oligo dT) sont ajoutés ensuite. La microplaque est couverte au moyen d'un film plastique et incubée 60 minutes à 37°C.
On arrête la réaction en ajoutant 20 µl d'une solution glacée de 120 mM de Na₄P₂O₇ dans 60 % d'acide trichloracétique et les échantillons sont placés 15 minutes sur un lit de glace.
Les précipités sont filtrés sur fibres de verre en utilisant un laveur de cellules (Skatron) et les filtres sont lavés avec une solution de 12 mM de Na₄P₂O₇ dans 5 % d'acide trichloracétique.
Les filtres sont séchés et la radioactivité est comptée après ajout d'un liquide scintillant. Les essais sont faits en triple.

[2] = tested on: lymphocytes humains; test: Antiproliferative activity (cytotoxicity) on non-infected human lymphocytes (MTT viability); conditions: day 21
Method: (§1) La source des leucocytes humains est un stock congelé en N₂ liquide (100 x 10⁶ cellules/ampoule) de leucocytes obtenus sur cytaphérèse d'individus (donneurs) sains. Au moment de l'essai, les cellules sont décongelées, mises en suspension dans 80 % de sérum de veau foetal (SVF) et 20 % de diméthylsulfoxyde et centrifugées à 1000 rpm (10 minutes). Le culot est mis en suspension dans un milieu RPMI [contenant 10 % Lymphocult (Interleukine 2 en provenance de Biotest Diagnostic), 10 % de SVF, pénicilline et streptomycine, respectivement 40 U/ml et 40 µg/ml], à raison de 1 x 10⁶ cellules/ml. Habituellement, on utilise un flacon de culture cellulaire contenant 40 à 60 ml de cette suspension cellulaire. Les cellules sont incubées 4 jours en présence de phytohémagglutinine PHA (0,1 % DIFCO), à 37°C sous une atmosphère contenant 95 % d'air et 5 % de gaz carbonioue. Les cellules sont alors centrifugées, lavées une fois dans du milieu frais (ci-dessus) et remises en suspension dans le même milieu à 1 x 10⁶ cellules/ml [(RPMI 10 % de SVF, 10 % de Lymphocult-antibiotiques ci-dessus) mais contenant 10 U/ml d'anticorps anti-interferon (IFN α) 5 µg/ml de prolybrène.
(§2) 200 µl de cette suspension cellulaire (200.000 cellules) sont déposés dans des puits d'une microplaque de cultures (à 96 puits). A chaque puits, on ajoute 25 µl du produit à tester [dilué 10 fois dans du tampon phosphate isotonique (TPI)] ou 25 µl du solvant TPI pour le contrôle. L'essai est fait en 2 séries : sur cellules infectées (pour déterminer l'activité antivirale) et sur cellules non infectées pour déterminer l'activité antiproliférative (cytotoxicité). On infecte alors avec 25 µl du virus HIV (souche LAV-BRU), alors que l'autre série reçoit (par puits) 25 µl du milieu (ci-dessus). Les cultures sont incubées 7 jours à 37°C (95 % d'air, 5 % de CO₂). 200 µl de surnageant sont alors prélevés, rejetés ou utilisés pour la détermination de l'activité transcriptase inverse. Les cellules du fond (sous 50 µl) sont alors soit testées pour leur viabilité (test MTT), soit additionnées de 200 µl de milieu frais (ci-dessus). Dans ce dernier cas, l'incubation est prolongée pendant encore 7 jours (test au jour 14). L'opération peut être répétée une semaine après (test au jour 21).

[3] = tested on: virus HIV (souche LAV-BRU); test: Inhibition of the cytopathogenic effect of HIV in infected human lymphocyte culture (MTT viability); conditions: 21 days after infection, human lymphocytes
Method: as §1, §2

[4] = product present du jour 0 au jour 18 (1,2 µg/ml), day 20 after infection
[5] = product present du jour 0 au jour 18 (1,2 µg/ml), day 39 after infection
[6] = product present du jour 0 au jour 18 (1,2 µg/ml), day 42 after infection
[7] = product present du jour 0 au jour 18 (1,2 µg/ml), day 46 after infection
[8] = product present du jour 0 au jour 18 (1,2 µg/ml), day 49 after infection
[9] = product present du jour 0 au jour 18 (1,2 µg/ml), day 53 after infection
[10] = product present du jour 0 au jour 18 (1,2 µg/ml), day 56 after infection
[11] = product present du jour 0 au jour 18 (1,2 µg/ml), day 60 after infection
[12] = product present du jour 0 au jour 18 (1,2 µg/ml), day 80 after infection
[13] = product present du jour 0 à la fin de l'expérience (1,2 µg/ml), day 20 after infection
[14] = product present du jour 0 à la fin de l'expérience (1,2 µg/ml), day 39 after infection
[15] = product present du jour 0 à la fin de l'expérience (1,2 µg/ml), day 42 after infection
[16] = product present du jour 0 à la fin de l'expérience (1,2 µg/ml), day 46 after infection
[17] = product present du jour 0 à la fin de l'expérience (1,2 µg/ml), day 49 after infection
[18] = product present du jour 0 à la fin de l'expérience (1,2 µg/ml), day 53 after infection
[19] = product present du jour 0 à la fin de l'expérience (1,2 µg/ml), day 56 after infection
[20] = product present du jour 0 à la fin de l'expérience (1,2 µg/ml), day 60 after infection
[21] = product present du jour 0 à la fin de l'expérience (1,2 µg/ml), day 80 after infection

Row | Compound | Activité de la reverse transcriptase [1, 4] [coups/mn x 10⁻³] | Activité de la reverse transcriptase [1, 5] [coups/mn x 10⁻³] | Activité de la reverse transcriptase [1, 6] [coups/mn x 10⁻³] | Activité de la reverse transcriptase [1, 7] [coups/mn x 10⁻³] | Activité de la reverse transcriptase [1, 8] [coups/mn x 10⁻³] | Activité de la reverse transcriptase [1, 9] [coups/mn x 10⁻³] | Activité de la reverse transcriptase [1, 10] [coups/mn x 10⁻³] | Activité de la reverse transcriptase [1, 11] [coups/mn x 10⁻³] | Activité de la reverse transcriptase [1, 12] [coups/mn x 10⁻³] | Activité de la reverse transcriptase [1, 13] [coups/mn x 10⁻³] | Activité de la reverse transcriptase [1, 14] [coups/mn x 10⁻³] | Activité de la reverse transcriptase [1, 15] [coups/mn x 10⁻³] | Activité de la reverse transcriptase [1, 16] [coups/mn x 10⁻³] | Activité de la reverse transcriptase [1, 17] [coups/mn x 10⁻³] | Activité de la reverse transcriptase [1, 18] [coups/mn x 10⁻³] | Activité de la reverse transcriptase [1, 19] [coups/mn x 10⁻³] | Activité de la reverse transcriptase [1, 20] | Activité de la reverse transcriptase [1, 21] [coups/mn x 10⁻³] | Cellules non infectées Densité optique ([2]; 0,04 µg/ml) | Cellules non infectées Densité optique ([2]; 0,12 µg/ml) | other results
1 | CN(C)c1ccc(O)c2c1C[C@H]1C[C@H]3[C@H](N(C)C)C(O)=C(C(N)=O)C(=O)[C@@]3(O)C(O)=C1C2=O [Exemple 5, minocycline] | 27 | 21 | 37 | 19 | 21 | 17 | 3 | 2 | 3 | 25 | 33 | 33 | 29 | 37 | 14 | 2 | 2 coups/mn x 10⁻³ | 5 | 0,836 | 0,775 | Cellules non infectées Densité optique ([2]; 0,37 µg/ml): 0,850; Cellules non infectées Densité optique ([2]; 10 µg/ml): 0,833; Cellules non infectées Densité optique ([2]; 1,11 µg/ml): 0,980; Cellules non infectées Densité optique ([2]; 3,33 µg/ml): 0,900; Cellules infectées Densité optique ([3]; 0,04 µg/ml): 0,530; Cellules infectées Densité optique ([3]; 0,12 µg/ml): 0,435; Cellules infectées Densité optique ([3]; 0,37 µg/ml): 0,640; Cellules infectées Densité optique ([3]; 10 µg/ml): 0,540; Cellules infectées Densité optique ([3]; 1,11 µg/ml): 0,835; Cellules infectées Densité optique ([3]; 3,33 µg/ml): 0,750
2 | doxycycline [Exemple 2] | 21 | 30 | 31 | 21 | 24 | 14 | 2 | 3 | 2 | 25 | 26 | 31 | 27 | 18 | 10 | 2 | 1,4 coups/mn x 10⁻³ | 2 | 0,775 | 0,765 | Cellules non infectées Densité optique ([2]; 0,37 µg/ml): 0,853; Cellules non infectées Densité optique ([2]; 10 µg/ml): 0,103; Cellules non infectées Densité optique ([2]; 1,11 µg/ml): 0,835; Cellules non infectées Densité optique ([2]; 3,33 µg/ml): 0,670; Cellules infectées Densité optique ([3]; 0,04 µg/ml): 0,530; Cellules infectées Densité optique ([3]; 0,12 µg/ml): 0,590; Cellules infectées Densité optique ([3]; 0,37 µg/ml): 0,550; Cellules infectées Densité optique ([3]; 10 µg/ml): 0,125; Cellules infectées Densité optique ([3]; 1,11 µg/ml): 0,773
